Test results: patent publication US20070172912A1, “Method for fluorescently staining tissue” (PENTAX Corporation, priority 2006, published 2007)

System: slices of the large intestines
Assay: Degree of permeation of staining solution in slices of large intestines, varying pH
Parameters: species or system rat
Conditions: 0.1 mg/mL, pH 4.0, 5.0, 6.0, 7.0 and saline
Procedure: Slices of the large intestines used in Example 4 were observed, and the degree of permeation of a staining solution was observed. Fluorescein sodium was adjusted to 0.1 mg/mL in the same way as in Example 4 by dilution with solutions with pH 4.0, 5.0, 6.0, and 7.0 and a saline. Imaging was performed with a fluorescence microscope (manufactured by ZEISS, LSM510) under imaging conditions including a pinhole diameter of 1.0 and Max, and 20× and 40× lenses were used.

difference in the degree of permeation into the tissues between staining solutions with varying pH: no significant difference
Structure (SMILES): O=C1OC2(c3ccc(O)cc3Oc3cc(O)ccc32)c2ccccc21 [F—Na, fluorescein sodium]
